Experimental data reported in paper PMC3743170 (Molecular Informatics, 2013).

Assays:
PI3Kα = PI3Kα (Homo sapiens, UniProt P42336); test: PI3Kα activity determination; type: biochemical; conditions: 10-dose IC50 determination (n=3), 10 µM ATP
human M1 receptor = biological target: T1, human M1 receptor (Homo sapiens, UniProt P11229); test: Cell-based functional M1 agonist assay
T1 sequence (P11229 1-460): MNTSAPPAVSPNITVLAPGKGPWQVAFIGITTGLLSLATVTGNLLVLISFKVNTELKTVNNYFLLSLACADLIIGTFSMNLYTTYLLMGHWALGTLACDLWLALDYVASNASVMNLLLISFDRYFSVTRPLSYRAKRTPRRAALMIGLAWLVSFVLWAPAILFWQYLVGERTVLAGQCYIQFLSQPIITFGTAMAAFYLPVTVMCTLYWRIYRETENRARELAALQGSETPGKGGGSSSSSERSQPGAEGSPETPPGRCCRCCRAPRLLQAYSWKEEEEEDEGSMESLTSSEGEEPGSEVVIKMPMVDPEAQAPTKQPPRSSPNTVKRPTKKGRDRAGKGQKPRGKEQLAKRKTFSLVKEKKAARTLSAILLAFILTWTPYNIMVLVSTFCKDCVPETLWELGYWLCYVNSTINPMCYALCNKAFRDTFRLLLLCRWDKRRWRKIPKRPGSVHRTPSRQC

[1] = Dynamic light scattering aggregation; type: physicochemical; conditions: aqueous solution with 1 % DMSO

Sequence of PI3Kα (P42336 whole entry): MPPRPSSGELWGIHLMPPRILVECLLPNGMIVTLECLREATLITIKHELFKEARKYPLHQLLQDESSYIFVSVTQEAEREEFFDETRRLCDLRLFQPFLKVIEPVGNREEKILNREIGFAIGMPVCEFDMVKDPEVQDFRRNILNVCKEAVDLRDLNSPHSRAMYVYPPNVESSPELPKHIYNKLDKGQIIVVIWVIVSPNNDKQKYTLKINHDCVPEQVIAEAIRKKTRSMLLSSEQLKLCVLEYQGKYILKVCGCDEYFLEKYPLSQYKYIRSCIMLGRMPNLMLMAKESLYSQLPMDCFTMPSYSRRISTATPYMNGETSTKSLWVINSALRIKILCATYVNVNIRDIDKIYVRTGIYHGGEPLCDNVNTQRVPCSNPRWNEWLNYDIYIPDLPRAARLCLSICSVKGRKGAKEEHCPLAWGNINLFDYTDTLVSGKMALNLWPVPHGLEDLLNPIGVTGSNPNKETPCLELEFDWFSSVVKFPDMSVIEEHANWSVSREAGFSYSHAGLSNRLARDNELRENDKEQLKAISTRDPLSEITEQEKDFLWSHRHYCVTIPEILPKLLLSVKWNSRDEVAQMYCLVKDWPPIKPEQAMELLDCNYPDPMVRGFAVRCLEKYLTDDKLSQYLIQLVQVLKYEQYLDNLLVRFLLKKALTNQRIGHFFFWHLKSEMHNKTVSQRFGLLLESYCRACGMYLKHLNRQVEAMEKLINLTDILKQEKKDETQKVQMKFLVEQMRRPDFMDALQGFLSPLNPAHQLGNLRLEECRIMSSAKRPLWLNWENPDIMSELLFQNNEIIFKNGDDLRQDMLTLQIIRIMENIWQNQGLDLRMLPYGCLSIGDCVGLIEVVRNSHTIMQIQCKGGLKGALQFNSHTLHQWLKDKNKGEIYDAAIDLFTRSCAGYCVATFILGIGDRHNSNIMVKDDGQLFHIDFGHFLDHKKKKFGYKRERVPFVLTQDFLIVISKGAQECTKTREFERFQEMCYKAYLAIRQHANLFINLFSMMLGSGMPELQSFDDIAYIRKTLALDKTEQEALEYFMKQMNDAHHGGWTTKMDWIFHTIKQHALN
Sequence of PI3Kα (P27986 whole entry partner): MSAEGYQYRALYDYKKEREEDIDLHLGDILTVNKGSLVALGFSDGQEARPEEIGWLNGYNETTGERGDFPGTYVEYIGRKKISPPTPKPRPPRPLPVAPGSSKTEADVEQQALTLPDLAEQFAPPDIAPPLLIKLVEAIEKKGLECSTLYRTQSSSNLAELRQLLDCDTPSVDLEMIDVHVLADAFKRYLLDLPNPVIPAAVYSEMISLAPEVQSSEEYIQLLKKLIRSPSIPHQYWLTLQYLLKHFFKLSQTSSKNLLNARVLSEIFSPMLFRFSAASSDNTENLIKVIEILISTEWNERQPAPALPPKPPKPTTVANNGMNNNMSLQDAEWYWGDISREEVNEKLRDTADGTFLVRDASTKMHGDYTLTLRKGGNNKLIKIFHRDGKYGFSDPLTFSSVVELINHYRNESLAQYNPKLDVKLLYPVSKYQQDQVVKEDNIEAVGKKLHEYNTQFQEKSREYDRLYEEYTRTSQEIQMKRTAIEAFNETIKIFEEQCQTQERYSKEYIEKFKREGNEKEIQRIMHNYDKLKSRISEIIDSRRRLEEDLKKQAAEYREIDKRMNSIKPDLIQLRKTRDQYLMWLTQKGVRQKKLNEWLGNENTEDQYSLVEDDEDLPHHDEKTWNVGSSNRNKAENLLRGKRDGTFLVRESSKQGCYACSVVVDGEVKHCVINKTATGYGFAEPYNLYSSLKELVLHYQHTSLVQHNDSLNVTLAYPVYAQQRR

IC50 (PI3Kα) | EC50 (human M1 receptor) | M1 agonistic activity, % of the effect caused by 100 nM acetylcholine (human M1 receptor; compound concentration of 10 µM) | concentrations at which aggregate particles were observable [1] | Structure (SMILES)
131 µM |  |  |  | COC(=O)CNc1c(-c2ccc(OC)cc2OC)nc2ccccn12 [Compound 1, methyl 2-((2-(2,4-dimethoxyphenyl)imidazo[1,2-a]pyridin-3-yl)amino)acetate]
230 ± 30 µM | ~5 µM | 34±5% | 15.5 to 250 µM | COC(=O)c1ccn2c(NCCN3CCOCC3)c(-c3cccn3C)nc2c1 [Compound 2, methyl 2-(1-methyl-1H-pyrrol-2-yl)-3-((2-morpholinoethyl)amino)imidazo[1,2-a] pyridine-7-carboxylate]
